One data set has as its system S. mutans ΔfoID biofilms. Kind of data set: S. mutans biofilm viability assay, foID deletion mutant. The class given is cell-based, Streptococcus mutans. The settings on record: 2.5 μg/ml carolacton. The procedure:
According to Reck et al., 2011, S. mutans biofilms were grown in THBY+0.5% (w/v) sucrose in the presence of 2.5 μg/ml carolacton (cf. SI Methods). Cell viability was determined by staining of 20 h-old S. mutans biofilms with the LIVE/DEAD Viability Kit (Invitrogen) and by measuring fluorescence with a Victor^3 multilabel counter (Perkin-Elmer). Subsequently, the green/red fluorescence ratio was calculated and the relative inhibition of the treated biofilms determined in comparison to the untreated control.
For determination of Carolacton-induced cell death of S. mutans biofilms, o/n cultures of S. mutans were diluted to an OD600 of 0.01 in THBY+0.5% (w/v) sucrose. 10 μl of a Carolacton solution (2.5 μg/ml and 0.25 μg/ml in methanol) was pipetted into the wells of black a 96-well polystyrene Nunc MicroWell plates with transparent bottoms (ThermoFisher); control wells contained 10 μl of methanol. […]
The viability of S. mutans biofilm cells was assayed by staining with the commercially available Live/Dead staining kit (Invitrogen). […] Green and red fluorescence values of stained cells were measured using a Victor^3 fluorescence plate reader (Perkin-Elmer). The green/red ratio of treated and untreated cells was calculated and the relative cell death within Carolacton-treated biofilms determined relative to the untreated controls (Reck et al., 2011).

The next data set deals with L-929 mouse fibroblasts. As to the kind of experiment: Toxicity assay (MTT, confluent layer). The class given is cell-based. The conditions noted are these: L929; after 18 h. The procedure:
L-929 mouse fibroblasts from DSMZ cultivated at 37° C. and […] in DME medium (high glucose) supplemented with 10% fetal calf serum. Cell culture reagents came from Life Technologies Inc. (GIBCO BRL). […] of sus-pended cells (100,000/mL) were seeded into wells of 96-well plate. After 4 days when the cells had formed a confluent layer, […] of serial dilutions of the test compound were added to the cells. After 18 hours of incubation metabolic activity of the cells was determined using an MTT assay (Mosman et al., 1983).

As for `CO[C@H](CC(=O)O)[C@@H](C)C(=O)[C@H](C)/C=C(\C)[C@H]1OC(=O)[C@H](O)[C@H](O)/C=C/[C@H](C)CCC[C@@H]1C` [Carolacton, carolacton], in the data set with S. mutans ΔfoID biofilms, the “sensitivity of biofilms to carolacton treatment” value was “fully insensitive”. Further, the acute toxicity entry in the data set with L-929 mouse fibroblasts was “no acute toxicity”.

Values taken from US11357752B2, “Carolacton and derivatives thereof for use in the treatment of cell proliferation disorders” (Helmholtz-Zentrum für Infektionsforschung GmbH, priority 2017, dated 2022).
